According to patent US7435790B2, “Dihydroxypropyl cysteine peptide and agent containing this peptide” (Helmholtz-Zentrum fuer Infektionsforschung GmbH, priority 1996, dated 2008):

Experiments:
[1] = test system: interferon-treated murine peritoneal macrophages; experiment: Nitrite/nitrate (nitrogen monoxide) release on stimulation of interferon-treated murine peritoneal macrophages; assay type: cell-based; details: mouse system
Method: The lipopeptide is prepared from Mycoplasma fermentans (for example PG18). The isolation of the lipopeptide from mycoplasma is carried out by the following known separation procedure (Mühlradt et al. in Biochemistry, 35 (1996) 7781-7786). • (i) Delipidation of the mycoplasma using chloroform/methanol. • (ii) Extraction of the delipidated mycoplasma using hot 25 mM octyl glucoside. • (iii) Dialysis of the detergent extract. • (iv) Concentration of the extract by lyophilisation. • (v) Reversed-phase chromatography on a C8 column using a water/2-propanol gradient. Detection of the biological activity is effected by measuring nitrite and nitrate as the secondary products of nitrogen monoxide, which is liberated on stimulation of interferon-treated murine peritoneal macrophages.
Immun., 59 (1991) 3962-3968 and Feng & Lo in Infect. Immun., 62 (1994) 3916-3921. Its half-maximum effective concentration (Max/2) is 20 pg/ml or 10^−11 M in the mouse system. That effective concentration is lower by a factor of from 10^2 to 10^3 than the corresponding known concentrations of similar natural or synthetic lipopeptides.

[2] = test system: macrophages of mice; details: cited from earlier work
[3] = test system: macrophages of humans; details: cited from earlier work

EC50 ([1]; read-out: half-maximum effective concentration (Max/2)): 0.01 nM
Substance: Dhc-GNN DES NIS FKE K: S-(2,3-dihydroxypropyl)-cysteine peptide from Mycoplasma fermentans with two ester-bonded long-chain fatty acids (C16:0 and C18:0/C18:1)
half-maximum effective concentration (Max/2) [1]: 20 pg/mL | release of cytokines and prostaglandins from macrophages [2]: stimulating macrophages of mice and humans to release cytokines and prostaglandins | release of cytokines and prostaglandins from macrophages [3]: stimulating macrophages of mice and humans to release cytokines and prostaglandins
